In test [1] the target is human vasopressin V2 receptor (Homo sapiens, UniProt P30518). The experiment in a line: Receptor binding study, [3H]AVP displacement on CHO cell membranes, human V2. The settings on record: [3H]AVP displacement, CHO cell membrane, 25° C., one hour; read-out: Human V2 Ki. As for the experimental part:
Preparation of Chinese hamster ovary (Cho) cell which expresses human vasopressin receptor subtype and production of membrane sample of the cell was conducted according to the method of Tahara et al. (Br. J. Pharmacol., 125, 1463-1470, 1998).
(§1) (ii) Receptor Binding Study
In saturation binding experiment, the membrane sample and [^3H]AVP of several concentrations (0.125 nM to 4.0 nM) were mixed and incubated in microplate wells. In displacement experiment, [^3H]AVP of constant concentrations (0.5 nM to 1.0 nM) and the membrane sample were mixed with Compound A of several concentrations, and incubation was performed. Assay was performed using 50 mM of Tris-HCl (pH=7.4) (total amount: 250 μL) (buffer composition: containing […] of MgCl2 and 0.1% BSA), and incubation was performed at room temperature (25° C.) for one hour. After incubation, suck filtration was immediately performed and reaction was completed when the membrane sample was collected on a glass fiber filter fitted with the microplate. After the filter was washed with an ice-cold Tris-HCl buffer (50 mM Tris-HCl, 10 mM MgCl2, pH 7.4), radioactivity measurement was performed. Nonspecific binding was determined using nonradioactive-labeled AVP (1 μM).

Test [2] concerns the target human vasopressin V1a receptor (Homo sapiens, UniProt P37288). Nature of the test: Receptor binding study, [3H]AVP displacement on CHO cell membranes, human V1a. The note with it: [3H]AVP displacement, CHO cell membrane, 25° C., one hour; read-out: Human V1a Ki. As for the experimental part:
as §1
Assay was performed using 50 mM of Tris-HCl (pH=7.4) (total amount: 250 μL) (buffer composition: containing […] of MgCl2 and 0.1% BSA), and incubation was performed at room temperature (25° C.) for one hour. After incubation, suck filtration was immediately performed and reaction was completed when the membrane sample was collected on a glass fiber filter fitted with the microplate. After the filter was washed with an ice-cold Tris-HCl buffer (50 mM Tris-HCl, 10 mM MgCl2, pH 7.4), radioactivity measurement was performed. Nonspecific binding was determined using nonradioactive-labeled AVP (1 μM).

Sequence of human vasopressin V1a receptor (P37288 whole entry): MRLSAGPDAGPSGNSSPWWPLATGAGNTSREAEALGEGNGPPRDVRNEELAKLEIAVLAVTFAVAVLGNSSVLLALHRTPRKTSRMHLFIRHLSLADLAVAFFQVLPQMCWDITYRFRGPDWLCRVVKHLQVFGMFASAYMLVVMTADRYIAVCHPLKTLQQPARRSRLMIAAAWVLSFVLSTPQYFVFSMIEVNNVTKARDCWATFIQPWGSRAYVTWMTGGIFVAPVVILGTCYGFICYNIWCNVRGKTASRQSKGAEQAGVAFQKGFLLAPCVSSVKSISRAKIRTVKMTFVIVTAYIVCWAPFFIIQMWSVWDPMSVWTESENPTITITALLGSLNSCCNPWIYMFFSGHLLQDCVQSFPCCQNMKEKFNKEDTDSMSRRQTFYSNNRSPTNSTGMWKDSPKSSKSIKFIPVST
Sequence of human vasopressin V2 receptor (P30518 whole entry): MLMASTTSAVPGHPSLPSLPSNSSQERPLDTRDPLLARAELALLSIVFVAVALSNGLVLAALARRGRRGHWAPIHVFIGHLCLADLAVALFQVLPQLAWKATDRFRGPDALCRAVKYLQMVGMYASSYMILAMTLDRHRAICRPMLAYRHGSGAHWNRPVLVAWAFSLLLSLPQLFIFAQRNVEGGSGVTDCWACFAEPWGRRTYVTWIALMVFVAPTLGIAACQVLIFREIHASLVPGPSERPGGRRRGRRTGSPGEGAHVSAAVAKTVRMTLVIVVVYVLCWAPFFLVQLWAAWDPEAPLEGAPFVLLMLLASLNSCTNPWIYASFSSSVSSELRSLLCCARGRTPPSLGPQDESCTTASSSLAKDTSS

For orientation: Ki means a measure of affinity in units of concentration, obtained from inhibition or displacement. Turning to `CCCN1CCN(CCOc2cc(C(=O)N3CC[C@H](C)Nc4ccccc43)ccc2-c2ccc(NCC)cc2)CC1` [Example 160, N-ethyl-4′-[[(4S)-4-methyl-2,3-4,5-tetrahydro-1H-1,5-benzodiazepin-1-yl]carbonyl]-2′-[2-(4-propyl-1-piperazinyl)ethoxy][1,1′-biphenyl]-4-amine], the inhibition constant (Ki) amounted to 22 nM in test [1] and 0.2 nM in test [2].
For `C[C@H]1CCN(C(=O)c2ccc(-c3ccc4[nH]ccc4c3)c(NS(C)(=O)=O)c2)c2ccccc2N1` [Example 48, N-[2-(1H-indol-5-yl)-5-[[(4S)-4-methyl-2,3,4,5-tetrahydro-1H-1,5-benzodiazepin-1-yl]carbonyl]phenyl]methanesulfonamide], the inhibitory constant (Ki) in test [1] was 1.5 nM; in test [2], 0.23 nM.
On the same counts, the results for `C[C@H]1CCN(C(=O)c2ccc(-c3ccc4[nH]ccc4c3)c(OCCCCN3CCN(C)CC3)c2)c2ccccc2N1` [Example 103] are 3.6 nM and 0.24 nM.
As for `CCCN(C)CCCOc1cc(C(=O)N2CC[C@H](C)Nc3ccccc32)ccc1-c1ccc2[nH]ccc2c1` [Example 81, N-[3-[2-(1H-indol-5-yl)-5-[[(4S)-4-methyl-2,3,4,5-tetrahydro-1H-1,5-benzodiazepin-1-yl]carbonyl]phenoxy]propyl]-N-methyl-N-propylamine], the Ki in test [1] was 8 nM; in test [2] it was 0.17 nM.
On the same counts, the results for `C[C@@H]1CCN(C(=O)c2ccc(-c3ccc4[nH]ccc4c3)c(OCCN3CCOCC3)c2)c2ccccc2N1` [Example 66, (4R)-1-[4-(1H-indol-5-yl)-3-[2-(4-morpholinyl)ethoxy]benzoyl]-4-methyl-2,3,4,5-tetrahydro-1H-1,5-benzodiazepine] are 3.6 nM and 0.41 nM.
Take `CCCN(C)CCCOc1cc(C(=O)N2CC[C@H](C)Nc3ccccc32)ccc1-c1ccc(NC)cc1` [Example 105, N-methyl-2′-[3-[methyl(propyl)amino]propoxy]-4′-[[(4S)-4-methyl-2,3,4,5-tetrahydro-1H-1,5-benzodiazepin-1-yl]carbonyl][1,1′-biphenyl]-4-amine]: the Ki in test [1] was 54 nM; in test [2], 0.16 nM.
As to `CC1CN(CCCOc2cc(C(=O)N3CC[C@H](C)Nc4ccccc43)ccc2-c2ccc3[nH]ccc3c2)CC(C)O1` (stereo partly drawn) [Example 80, (4S)-1-[3-[3-(2,6-dimethyl-4-morpholinyl)propoxy]-4-(1H-indol-5-yl)benzoyl]-4-methyl-2,3,4,5-tetrahydro-1H-1,5-benzodiazepine], the Ki in test [1] worked out at 5.1 nM; in test [2], 0.064 nM.
On the same counts, the results for `C[C@H]1CCN(C(=O)c2ccc(-c3ccc4[nH]ccc4c3)c(OCCN3CCOCC3)c2)c2ccccc2N1` [Example 59, (4S)-1-[4-(1H-indol-5-yl)-3-[2-(4-morpholinyl)ethoxy]benzoyl]-4-methyl-2,3,4,5-tetrahydro-1H-1,5-benzodiazepine] are 0.89 nM and 0.23 nM.
On the same counts, the results for `C[C@H]1CCN(C(=O)c2ccc(-c3ccc4[nH]ccc4c3)c(C(=O)OCCCCN(C)C)c2)c2ccccc2N1` [Example 162, 4-(dimethylamino)butyl 2-(1H-indol-5-yl)-5-[[(4S)-4-methyl-2,3,4,5-tetrahydro-1H-1,5-benzodiazepin-1-yl]carbonyl]benzoate] are 29 nM and 0.13 nM.
Regarding `CCCN(C)CCCCCOc1cc(C(=O)N2CC[C@H](C)Nc3ccccc32)ccc1-c1ccc2[nH]ccc2c1` [Example 126], the Ki in test [1] is 7 nM; in test [2], 0.24 nM.
On the same counts, the results for `C[C@H]1CCN(C(=O)c2ccc(-c3ccc4[nH]ccc4c3)c(OCCCCCN3CCOCC3)c2)c2ccccc2N1` [Example 69, (4S)-1-[4-(1H-indol-5-yl)-3-[[5-(4-morpholinyl)pentyl]oxy]benzoyl]-4-methyl-2,3,4,5-tetrahydro-1H-1,5-benzodiazepine] are 17 nM and 0.24 nM.
In the case of `CCCCCN(C)CCCCOc1cc(C(=O)N2CC[C@H](C)Nc3ccccc32)ccc1-c1ccc2[nH]ccc2c1` [Example 174, N-[4-[2-(1H-indol-5-yl)-5-[[(4S)-4-methyl-2,3,4,5-tetrahydro-1H-1,5-benzodiazepin-1-yl]carbonyl]phenoxy]butyl]-N-methyl-1-pentaneamine], the results for the Ki in test [1] and in test [2] were 11 nM and 0.35 nM, respectively.
In the same order, the values of `C[C@@H]1CCN(C(=O)c2ccc(-c3ccc4[nH]ccc4c3)c(OCCCN)c2)c2ccccc2N1` [Example 55, 3-[2-(1H-indol-5-yl)-5-[[(4R)-4-methyl-2,3,4,5-tetrahydro-1H-1,5-benzodiazepin-1-yl]carbonyl]phenoxy]propylamine] are 25 nM and 0.31 nM.
Regarding `C[C@H]1CCN(C(=O)c2ccc(-c3ccc(N)cc3)c(OCCCN)c2)c2ccccc2N1` [Example 54, 2′-(3-aminopropoxy)-4′-[[(4S)-4-methyl-2,3,4,5-tetrahydro-1H-1,5-benzodiazepin-1-yl]carbonyl][1,1′-biphenyl]-4-amine], the figures for the Ki in test [1] and in test [2] were 731 nM and 0.41 nM, respectively.
In the same order, the values of `COc1cc(C(=O)N2CCC(C)Nc3ccccc32)ccc1-c1ccc2[nH]ccc2c1` (stereo not drawn) [Example 1, 1-[4-(1H-indol-5-yl)-3-methoxybenzoyl]-4-methyl-2,3,4,5-tetrahydro-1H-1,5-benzodiazepine] are 1.7 nM and 0.39 nM.
On the same counts, the results for `C[C@H]1CCN(C(=O)c2ccc(-c3ccc4[nH]ccc4c3)c(OCCCN3CCN(C)CC3)c2)c2ccccc2N1` [Example 70, (4S)-1-[4-(1H-indol-5-yl)-3-[3-(4-methyl-1-piperazinyl)propoxy]benzoyl]-4-methyl-2,3,4,5-tetrahydro-1H-1,5-benzodiazepine] are 6.9 nM and 0.19 nM.
Take `C[C@H]1CCN(C(=O)c2ccc(-c3ccc4[nH]ccc4c3)c(OCCCN3CCC(NC=O)CC3)c2)c2ccccc2N1` [Example 87, 1-[3-[2-(1H-indol-5-yl)-5-[[(4S)-4-methyl-2,3,4,5-tetrahydro-1H-1,5-benzodiazepin-1-yl]carbonyl]phenoxy]propyl]-4-piperidinylformamide]: the Ki in test [1] came to 8.7 nM; in test [2], 0.086 nM.
On the same counts, the results for `C[C@H]1CCN(C(=O)c2ccc(-c3ccc4[nH]ccc4c3)c(OCCCN(C)C(C)(C)C)c2)c2ccccc2N1` [Example 82, N-(tert-butyl)-N-[3-[2-(1H-indol-5-yl)-5-[[(4S)-4-methyl-2,3,4,5-tetrahydro-1H-1,5-benzodiazepin-1-yl]carbonyl]phenoxy]propyl]-N-methylamine] are 16 nM and 0.16 nM.
On the same counts, the results for `CCCCN(CC)CCCOc1cc(C(=O)N2CC[C@H](C)Nc3ccccc32)ccc1-c1ccc2[nH]ccc2c1` [Example 124, N-ethyl-N-[3-[2-(1H-indol-5-yl)-5-[[(4S)-4-methyl-2,3,4,5-tetrahydro-1H-1,5-benzodiazepin-1-yl]carbonyl]phenoxy]propyl]-1-butaneamine] are 20 nM and 0.37 nM.
Turning to `CC(=O)Nc1cc(C(=O)N2CC[C@@H](C)Nc3ccccc32)ccc1-c1ccc2[nH]ccc2c1` [Example 16, N-[2-(1H-indol-5-yl)-5-[[(4R)-4-methyl-2,3,4,5-tetrahydro-1H-1,5-benzodiazepin-1-yl]carbonyl]phenyl]acetamide], the figures for the Ki in test [1] and in test [2] were 63 nM and 0.33 nM, respectively.
In the same order, the values of `CCCN1CCN(CCCOc2cc(C(=O)N3CC[C@H](C)Nc4ccccc43)ccc2-c2ccc(NCC)cc2)CC1` [Example 159, N-ethyl-4′-[[(4S)-4-methyl-2,3-4,5-tetrahydro-1H-1,5-benzodiazepin-1-yl]carbonyl]-2′-[3-(4-propyl-1-piperazinyl)propoxy][1,1′-biphenyl]-4-amine] are 11 nM and 0.18 nM.
In the same order, the values of `CC1CCN(C(=O)c2ccc(-c3ccc4[nH]ccc4c3)c(OCCN3CCOCC3)c2)c2ccccc2N1` (stereo not drawn) [Example 46, 2-(1H-indol-5-yl)-5-[(4-methyl-2,3,4,5-tetrahydro-1H-1,5-benzodiazepin-1-yl)carbonyl]phenyl 2-(4-morpholinyl)ethyl ether] are 1.1 nM and 0.24 nM.
On the same counts, the results for `C[C@H]1CCN(C(=O)c2ccc(-c3ccc4[nH]ccc4c3)c(C(=O)CCCCN(C)C)c2)c2ccccc2N1` [Example 158, 5-(dimethylamino)-1-[2-(1H-indol-5-yl)-5-[[(4S)-4-methyl-2,3,4,5-tetrahydro-1H-1,5-benzodiazepin-1-yl]carbonyl]phenyl]-1-pentanone] are 13 nM and 0.11 nM.
Turning to `C[C@H]1CCN(C(=O)c2ccc(-c3ccc4[nH]ccc4c3)c(OCCCN3CCOC3=O)c2)c2ccccc2N1` [Example 92, 3-[3-[2-(1H-indol-5-yl)-5-[[(4S)-4-methyl-2,3,4,5-tetrahydro-1H-1,5-benzodiazepin-1-yl]carbonyl]phenoxy]propyl]-1,3-oxazolidin-2-one], the Ki is 5.6 nM in test [1] and 0.21 nM in test [2].

These data come from patent US20080076760A1, “2,3,4,5-TETRAHYDRO-1H-1,5-BENZODIAZEPINE DERIVATIVE AND MEDICINAL COMPOSITION” (priority 2004, published 2008).
